In patent US12589087B2, “Enantiomer selective action on neurotransmission” (The Board of Trustees of the Leland Stanford Junior …, priority 2021, dated 2026):

Key:
[1] = target: T1, human glutaminase GLS1 (Homo sapiens, UniProt O94925); experiment: Catalysis of 2MeGln hydrolysis by GLS1 glutaminase; type: biochemical; conditions: 10 mM substrate
T1 construct: purchased Sigma SRP0516
T1 sequence (O94925 55-669): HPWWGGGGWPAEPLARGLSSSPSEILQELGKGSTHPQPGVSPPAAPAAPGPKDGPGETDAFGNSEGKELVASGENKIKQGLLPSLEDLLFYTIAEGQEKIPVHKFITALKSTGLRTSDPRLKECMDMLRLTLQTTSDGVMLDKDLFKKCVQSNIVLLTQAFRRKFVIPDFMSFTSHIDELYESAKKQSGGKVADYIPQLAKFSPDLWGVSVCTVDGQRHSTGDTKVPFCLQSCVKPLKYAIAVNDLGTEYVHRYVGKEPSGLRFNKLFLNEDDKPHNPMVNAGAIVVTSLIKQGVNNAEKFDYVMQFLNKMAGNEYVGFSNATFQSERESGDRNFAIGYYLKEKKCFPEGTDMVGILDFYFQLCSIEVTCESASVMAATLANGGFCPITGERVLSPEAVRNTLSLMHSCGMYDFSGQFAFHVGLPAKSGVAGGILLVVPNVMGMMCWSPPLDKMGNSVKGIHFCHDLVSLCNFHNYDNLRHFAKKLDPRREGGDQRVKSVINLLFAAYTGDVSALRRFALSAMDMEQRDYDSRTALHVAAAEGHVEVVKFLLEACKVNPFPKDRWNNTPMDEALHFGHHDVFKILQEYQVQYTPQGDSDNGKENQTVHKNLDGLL
Method: The procedure was adapted from an existing protocol. To a reaction mixture in a 1.5 mL microcentrifuge tube containing 10 mM rac-2MeGln or L-Gln-^13C2 in 100 mM phosphate pH 7.4 buffer made in 20% atom ^18O water, recombinant GLS1 (final concentration: 5 ng/mL) was added. The tubes were incubated in a preheated thermomixer at 37° C. and periodically shaken at 600 rpm (30 s on, 30 s off). 5 μL aliquots were collected in triplicate every 5 min and immediately diluted with 195 μL of cold 60% ACN containing 10 μM Glu-d5 and Gln-d5 as internal standards in a 96 well plate. After collecting all samples, the plate was shaken at 1000 rpm for 5 min at room temperature, and then stored at −80° C. Before analysis the plate was thawed and 10 μL aliquots of the extracted reaction mixtures were diluted with 190 μL of 90% acetonitrile.
The quantification of the newly formed 2MeGlu in the presence of the preexisting trace amounts was performed in the following way. Peak area ratio of Glu-^13C2 to Glu-^13C2^18O was calculated in all samples containing Glu-^13C2. The mean ratio value was then applied to calculate the hypothetical peak area of the newly formed 2MeGlu based on the directly measured 2MeGlu-^18O peak area. The ratio of the newly formed 2MeGlu peak area and the total 2MeGlu peak area was applied to calculate the concentration of the newly formed 2MeGlu from the total 2MeGlu concentration determined directly using the calibration curve.

[2] = tested on: mouse hippocampal slice cultures; experiment: Kainic acid neurodegeneration in hippocampal slice cultures (propidium iodide); type: cell-based
Method: We employed a standard technique of ex vivo experimentation to determine the efficacy of 2MeGlu, 2MeGln, and 4APA to prevent neurodegeneration. Mouse hippocampal slice cultures were prepared and then exposed to one of the three test compounds at either 5 or 50 μM for one hour. Then media was changed to contain either 2 or 5 μM kanic acid (KA) for 24 hr. […] After 24, the amount of neurodegeneration was assayed with propidium iodide staining. Increasing the dose of KA led to greater neurodegeneration at 5 μM than at 2 μM.

[3] = tested on: MPTP model of PD; experiment: MPTP model of PD, fine motor kinematic score; type: in vivo, mouse; conditions: 50 mg/kg/d IP, days −5 to 14
Method: Five groups of mice were treated with 40 mg/kg/d MPTP IP on days 1 and 2 and two concentrations of two test agents IP from days −5 to day 14 (FIG. 22). One group received vehicle, two groups received 5 or 50 mg/kg/d S-2MeGlu, and two groups received 5 or 50 mg/kg/d R-4APA. […] The high-precision fine motor kinematic protocol quantifies over 100 indices of gait and balance and integrates them into an overall kinematic score; higher score indicates greater impairment. […] Mice were sacrificed on day 15 and striatal dopamine as well as its major metabolites were quantified by HPLC with electrochemical detection.

Row | SMILES | apparent GLS1 reaction rate, lower compared to that of Gln [1] | apparent reaction rate of GLS1 hydrolysis ([1]; 5 ng/mL enzyme, phosphate pH 7.4) [µM/min] | reduction of neurodegeneration ([2]; 50 μM compound, lower dose of KA (2 μM)) | neuroprotection at the higher dose of KA ([2]; 5 or 50 μM compound, 5 μM KA) | rescue of motor deficit from MPTP (overall kinematic score) [3]
1 | CC(N)(CCC(N)=O)C(=O)O (racemic) [rac-2MeGln, rac-2-methylglutamine] | approximately 35 fold | 1.9 | approximately 50% | Neither dose of 2MeGlu or 2MeGln was neuroprotective | –
2 | C[C@](N)(CCC(=O)O)C(=O)O [(S)-2MeGlu, (S)-2-methylglutamic acid] | – | – | – | – | significantly rescued the motor deficit from MPTP
